Measured values from patent US8633206B2, “Pyrrolo[2,3-D]pyrimidine compounds” (Pfizer Inc., priority 2009, dated 2014).

What was measured:
Assay type in all cases: biochemical
JAK2 = JAK2 (Homo sapiens (Human), UniProt O60674); assay: JAK enzymatic assay (peptide mobility shift), JAK2; conditions: recombinant JAK2 2 nM, JAKtide peptide, 150 minutes
Text: (§1) Recombinant JAK1 (Catalog Number PV4775), JAK2 (Catalog Number PV4210) and JAK3 (Catalog Number PV3855) were purchased from (Invitrogen Corporation, Madison, Wis.). Tyk2 (His-Tyk2 (888-1182, C936S, C1142S)) used in this study was expressed and purified at Pfizer Laboratories. Adenosine 5′-triphosphate (ATP) was obtained from (Sigma Chemical Company, St. Louis, Mo.). […] Coating Reagent 3 was purchased from (Caliper Life Sciences, Hopkinton, Mass.).
A peptide mobility shift assay was used to quantify the phosphorylation of the JAKtide (JAK2 and JAK3) or the IRS-1 peptide (JAK1 and Tyk2). Reactions were carried out in a 384-well plate (Matrical MP-101) in a 10 L total volume. […] Compounds were diluted serially in 100% dimethyl sulfoxide and tested in an 11 point dose response in duplicate or quadruplicate (200 nl of compound/DMSO was added per 10 L reaction). The reactions were initiated by the addition of enzyme to the final concentration of 2 nM JAK2, 1 nM JAK3, 12 nM Tyk2 or 20 nM JAK1. The assay was run for 240 minutes for JAK1, 150 minutes for JAK2, 90 minutes for JAK3 and 70 minutes for Tyk2. The assays were stopped at the specified times with 20 uL of 140 mM HEPES, 22.5 mM EDTA and 0.15% Coating Reagent 3. The plates were placed on a LabChip 3000 (LC3000) instrument from (Caliper Life Sciences) to measure the formation of phosphorylated peptide. Data was analyzed using Hits Well Analyzer Software from (Caliper Life Sciences) to obtain the amount of product formed.
(§2) Data was then imported into an internal application where each data point is expressed as % inhibition based on uninhibited and no enzyme controls. Dose-response data is then fit using a 4 parameter logistic equation (Equation 1) to determine an IC50.

JAK1 = JAK1 (Homo sapiens (Human), UniProt P23458); assay: JAK enzymatic assay (peptide mobility shift), JAK1; conditions: recombinant JAK1 20 nM, IRS-1 peptide, 240 minutes
Protocol: as §1, with “Tyk2 (His-Tyk2 (888-1182, C936S, C1142S)) used in this study was expressed and purified at Pfizer Laboratories.” left out
(§3) Compounds were diluted serially in 100% dimethyl sulfoxide and tested in an 11 point dose response in duplicate or quadruplicate (200 nl of compound/DMSO was added per 10 L reaction). […] The assay was run for 240 minutes for JAK1, 150 minutes for JAK2, 90 minutes for JAK3 and 70 minutes for Tyk2. […] The plates were placed on a LabChip 3000 (LC3000) instrument from (Caliper Life Sciences) to measure the formation of phosphorylated peptide. Data was analyzed using Hits Well Analyzer Software from (Caliper Life Sciences) to obtain the amount of product formed.
as §2

JAK3 = JAK3 (Homo sapiens (Human), UniProt P52333); assay: JAK enzymatic assay (peptide mobility shift), JAK3; conditions: recombinant JAK3 1 nM, JAKtide peptide, 90 minutes
Protocol: as §1, with “Tyk2 (His-Tyk2 (888-1182, C936S, C1142S)) used in this study was expressed and purified at Pfizer Laboratories.” left out
as §3, §2

Chain of JAK3 (P52333 781-1124): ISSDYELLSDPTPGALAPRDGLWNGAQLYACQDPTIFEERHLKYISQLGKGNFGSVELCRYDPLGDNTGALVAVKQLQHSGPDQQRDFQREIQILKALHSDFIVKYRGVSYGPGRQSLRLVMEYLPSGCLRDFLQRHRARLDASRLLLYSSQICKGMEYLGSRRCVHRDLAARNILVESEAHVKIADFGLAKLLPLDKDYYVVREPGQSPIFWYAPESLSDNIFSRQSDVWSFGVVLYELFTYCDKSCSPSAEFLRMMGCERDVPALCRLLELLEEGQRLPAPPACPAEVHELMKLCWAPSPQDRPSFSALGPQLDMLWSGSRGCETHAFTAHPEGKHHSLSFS
Chain of JAK2 (O60674 808-1132): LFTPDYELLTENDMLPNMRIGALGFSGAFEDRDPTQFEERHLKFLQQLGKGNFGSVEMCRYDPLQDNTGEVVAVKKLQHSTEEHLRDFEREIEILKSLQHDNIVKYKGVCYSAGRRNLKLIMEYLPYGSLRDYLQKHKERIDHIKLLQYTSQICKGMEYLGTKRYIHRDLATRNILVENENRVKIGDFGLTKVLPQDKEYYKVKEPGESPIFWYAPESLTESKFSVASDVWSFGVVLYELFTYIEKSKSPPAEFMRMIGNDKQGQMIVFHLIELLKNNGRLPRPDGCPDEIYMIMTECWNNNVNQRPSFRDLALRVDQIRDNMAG
Chain of JAK1 (P23458 whole entry): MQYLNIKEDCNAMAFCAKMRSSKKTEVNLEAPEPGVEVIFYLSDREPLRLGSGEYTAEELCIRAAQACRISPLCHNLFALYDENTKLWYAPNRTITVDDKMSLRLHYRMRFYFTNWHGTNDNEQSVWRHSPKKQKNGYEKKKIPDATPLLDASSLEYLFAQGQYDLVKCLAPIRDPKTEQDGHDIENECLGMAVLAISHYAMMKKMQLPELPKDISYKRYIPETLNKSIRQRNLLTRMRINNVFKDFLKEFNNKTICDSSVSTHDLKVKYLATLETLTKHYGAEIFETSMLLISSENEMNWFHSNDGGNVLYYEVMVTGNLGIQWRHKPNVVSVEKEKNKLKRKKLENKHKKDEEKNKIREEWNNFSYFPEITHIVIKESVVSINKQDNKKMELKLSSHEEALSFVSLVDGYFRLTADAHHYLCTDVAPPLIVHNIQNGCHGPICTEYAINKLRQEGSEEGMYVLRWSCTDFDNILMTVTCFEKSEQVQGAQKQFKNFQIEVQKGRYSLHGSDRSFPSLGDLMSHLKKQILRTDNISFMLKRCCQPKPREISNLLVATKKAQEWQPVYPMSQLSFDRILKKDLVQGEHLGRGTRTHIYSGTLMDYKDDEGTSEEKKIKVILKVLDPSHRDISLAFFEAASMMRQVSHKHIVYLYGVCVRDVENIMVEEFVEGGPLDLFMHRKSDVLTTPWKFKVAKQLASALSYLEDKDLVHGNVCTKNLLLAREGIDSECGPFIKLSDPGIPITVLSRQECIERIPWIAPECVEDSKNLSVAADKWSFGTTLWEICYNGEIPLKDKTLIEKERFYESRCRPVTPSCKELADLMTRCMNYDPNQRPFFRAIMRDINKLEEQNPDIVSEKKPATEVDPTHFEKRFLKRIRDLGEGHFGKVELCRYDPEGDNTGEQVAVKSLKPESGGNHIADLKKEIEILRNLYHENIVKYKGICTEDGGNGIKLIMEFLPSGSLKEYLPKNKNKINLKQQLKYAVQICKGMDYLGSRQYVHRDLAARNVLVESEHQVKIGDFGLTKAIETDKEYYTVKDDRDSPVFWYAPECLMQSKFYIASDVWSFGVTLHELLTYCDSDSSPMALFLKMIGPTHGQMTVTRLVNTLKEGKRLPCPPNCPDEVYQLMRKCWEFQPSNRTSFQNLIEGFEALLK

Compound	IC50 (JAK2) [nM]	IC50 (JAK1) [nM]	IC50 (JAK3) [nM]
CCC1(NC(=O)OCc2ccccc2)CCCN(S(=O)(=O)C[C@H]2CC[C@H](N(C)c3ncnc4[nH]ccc34)CC2)C1 (stereo partly drawn) [Example 4, benzyl {3-ethyl-1-[({trans-4-[methyl(7H-pyrrolo[2,3-d]pyrimidin-4-yl)amino]cyclohexyl}methyl)-sulfonyl]piperidin-3-yl}carbamate]	71.7	44.6	846
CN(c1ncnc2[nH]ccc12)[C@H]1CC[C@H](CS(=O)(=O)N2CCCC(C(F)(F)F)C2)CC1 (stereo partly drawn) [Example 6, N-methyl-N-[trans-4-({[3-(trifluoromethyl)piperidin-1-yl]sulfonyl}methyl)-cyclohexyl]-7H-pyrrolo[2,3-d]pyrimidin-4-amine]	54.3	7.25	604
CN(c1ncnc2[nH]ccc12)[C@H]1CC[C@H](CS(=O)(=O)N2CCCC(CN3CCCC3)C2)CC1 (stereo partly drawn) [Example 8, N-methyl-N-[trans-4-({[3-(pyrrolidin-1-ylmethyl)-piperidin-1-yl]sulfonyl}-methyl)cyclohexyl]-7H-pyrrolo[2,3-d]pyrimidin-4-amine]		14.8	3280
CCOCCO[C@@H]1CCN(S(=O)(=O)C[C@H]2CC[C@H](N(C)c3ncnc4[nH]ccc34)CC2)C1 [Example 28, N-[trans-4-({[(3R)-3-(2-ethoxyethoxy)pyrrolidin-1-yl]sulfonyl}methyl)-cyclohexyl]-N-methyl-7H-pyrrolo[2,3-d]pyrimidin-4-amine]	16.8	6.31	
CN(c1ncnc2[nH]ccc12)[C@H]1CC[C@H](CS(=O)(=O)N2CCC(CS(=O)(=O)CC3CC3)CC2)CC1 [Example 49, N-(trans-4-{[(4-{[(cyclopropylmethyl)sulfonyl]-methyl}piperidin-1-yl)sulfonyl]-methyl}-cyclohexyl)-N-methyl-7H-pyrrolo[2,3-d]pyrimidin-4-amine]		11.7	491
CN(c1ncnc2[nH]ccc12)[C@H]1CC[C@H](CS(=O)(=O)N2CCC[C@H]2CN2CCCC2)CC1 [Example 108, N-methyl-N-[trans-4-({[(2S)-2-(pyrrolidin-1-ylmethyl)pyrrolidin-1-yl]sulfonyl}methyl)cyclo-hexyl]-7H-pyrrolo[2,3-d]pyrimidin-4-amine]		4.73	813
CN(c1ncnc2[nH]ccc12)[C@H]1CC[C@H](CS(=O)(=O)N2CC(c3cccnc3)C2)CC1 [Example 111, N-methyl-N-(trans-4-{[(3-pyridin-3-ylazetidin-1-yl)sulfonyl]methyl}cyclo-hexyl)-7H-pyrrolo[2,3-d]pyrimidin-4-amine]		22.7	346
CN(c1ncnc2[nH]ccc12)[C@H]1CC[C@H](CS(=O)(=O)N2CC(F)C2)CC1 [Example 112, N-(trans-4-{[(3-fluoroazetidin-1-yl)-sulfonyl]-methyl}-cyclohexyl)-N-methyl-7H-pyrrolo[2,3 d]pyrimidin-4-amine]		12.5	143
C[C@@H]1C[C@@H](CS(=O)(=O)N2CCC(CO)CC2)CC[C@@H]1N(C)c1ncnc2[nH]ccc12 [Example 130, {1-[({(1S,3R,4S)-3-methyl-4-[methyl(7H-pyrrolo[2,3-d]pyrimidin-4-yl)amino]cyclohexyl}-methyl)sulfonyl]piperidin-4-yl}methanol]		7.41	42.9
C[C@@H]1C[C@@H](CS(=O)(=O)N2CC[C@@H](CO)C2)CC[C@@H]1N(C)c1ncnc2[nH]ccc12 [Example 132, {(3R)-1-[({(1S,3R,4S)-3-methyl-4-[methyl(7H-pyrrolo[2,3-d]pyrimidin-4-yl)amino]cyclohexyl}methyl)-sulfonyl]pyrrolidin-3-yl}methanol]		6.5	51.2
CC1CC(CS(=O)(=O)N2CC[C@H](CO)C2)CCC1N(C)c1ncnc2[nH]ccc12 (stereo partly drawn) [Example 133, ((3S)-1-((3-methyl-4-(methyl(7H-pyrrolo[2,3-d]pyrimidin-4-yl)amino)cyclohexyl)methylsulfonyl)pyrrolidin-3-yl)methanol]		0.00508	0.0421

Continued, values first:

IC50 (JAK2) [nM]	IC50 (JAK1) [nM]	IC50 (JAK3) [nM]	Compound
4.09	1.2	31.7	CCOC1CCCN(S(=O)(=O)CC2CCC(N(C)c3ncnc4[nH]ccc34)CC2)C1 (stereo not drawn) [Example 3, N-(trans-4-{[(3-ethoxypiperidin-1-yl)sulfonyl]methyl}cyclo-hexyl)-N-methyl-7H-pyrrolo[2,3-d]pyrimidin-4-amine]
21.9	7.07	339	CC(=O)C1CCCN(S(=O)(=O)C[C@H]2CC[C@H](N(C)c3ncnc4[nH]ccc34)CC2)C1 (stereo partly drawn) [Example 5, 1-{1-[({trans-4-[methyl(7H-pyrrolo[2,3-d]pyrimidin-4-yl)amino]-cyclohexyl}methyl)sulfonyl]-piperidin-3-yl}ethanone]
	42.3	2270	CN(c1ncnc2[nH]ccc12)[C@H]1CC[C@H](CS(=O)(=O)N2CCC(N)CC2)CC1 [Example 11, N-(trans-4-{[(4-amino-piperidin-1-yl)sulfonyl]-methyl}cyclohexyl)-N-methyl-7H-pyrrolo[2,3-d]-pyrimidin-4-amine]
	22.8	673	CC[C@H](O)C1CCN(S(=O)(=O)C[C@H]2CC[C@H](N(C)c3ncnc4[nH]ccc34)CC2)CC1 [Example 53, 1-{1-[({trans-4-[methyl(7H-pyrrolo[2,3-d]pyrimidin-4-yl)amino]cyclohexyl}-methyl)sulfonyl]piperidin-4-yl}propan-1-ol]
	6.45	222	CN(c1ncnc2[nH]ccc12)[C@H]1CC[C@H](CS(=O)(=O)N2CCC[C@H](C(N)=O)C2)CC1 [Example 59, 1-[({trans-4-[methyl(7H-pyrrolo[2,3-d]pyrimidin-4-yl)amino]cyclohexyl}methyl)-sulfonyl]piperidine-3-carboxamide]
	6.47	457	C[C@H]1CCCN1S(=O)(=O)C[C@H]1CC[C@H](N(C)c2ncnc3[nH]ccc23)CC1 [Example 86, N-methyl-N-(trans-4-{[(2-methylpyrrolidin-1-yl)-sulfonyl]methyl}cyclohexyl)-7H-pyrrolo[2,3-d]-pyrimidin-4-amine]
	8.34	322	CN(c1ncnc2[nH]ccc12)[C@H]1CC[C@H](CS(=O)(=O)N2CC[C@](C)(O)C2)CC1 [Example 99, 3-methyl-1-[({trans-4-[methyl(7H-pyrrolo[2,3-d]pyrimidin-4-yl)amino]cyclohexyl}methyl)-sulfonyl]pyrrolidin-3-ol]
	19.4	587	CN(c1ncnc2[nH]ccc12)[C@H]1CC[C@H](CS(=O)(=O)N2CCS(=O)(=O)CC2)CC1 [Example 126, N-(trans-4-{[(1,1-dioxidothiomorpholin-4-yl)sulfonyl]methyl}cyclo-hexyl)-N-methyl-7H-pyrrolo[2,3-d]pyrimidin-4-amine]
	0.00777	0.302	CN(c1ncnc2[nH]ccc12)[C@H]1CC[C@H](CS(=O)(=O)N2CCC(C)(O)C2)CC1 (stereo partly drawn) [Example 137, 3-methyl-1-[({trans-4-[methyl(7H-pyrrolo[2,3-d]pyrimidin-4-yl)amino]cyclohexyl}methyl)sulfonyl]pyrrolidin-3-ol]
